Measurements as given in US20110039779A1, “IGF-1R BINDING PROTEINS AND ANTAGONISTS” (priority 2007, published 2011).
Like-named read-outs stand apart in the source and are kept apart here.

How the values were obtained:
SW480 cells = type: cell-based
Experimental: For cell growth/density studies, a mitochondrial activity assay was used, as exemplified by the following. Cells (SW480, MCF-7S8) were propagated in complete medium (DME: F12, 10% FCS (SW 480) or 5% FCS (MCF-7S8, P/S)), trypsinized, and seeded in 96 well plates as 10,000 cells/well in medium with 0.5% FCS. All wells in the periphery were omitted and only filled with medium. […] All treatments are made in triplicates. […] Treatment was continued for 48 hours (SW480 cells) or 72 hours (MCF-7S8 cells) before quantification of the cell density. Media was exchanged each day. Media and peptides were diluted in DMSO. When measuring cell density, the volume of each well was adjusted to […] Pre-diluted WST-1 (1 ml+1.5 ml DME:F12) was added as 25 μL to each well including background samples. Three wells with media only served as background controls. The cells were incubated for 90 min protected against light in an incubator.

purified HIGF-1R = molecular target: T1, purified HIGF-1R (Homo sapiens, UniProt P08069); test: IGF-1R activation kinase assay; type: biochemical; conditions: FIG. 2
T1 construct: HIGF-1R was purified from a cell culture of BHK cells stably transfected with IGF-1R cDNA; made in house; host or cells: BHK cells stably transfected with IGF-1R cDNA
Experimental: For determining IGF-1R activation with test peptides, a kinase assay, generally using the following conditions was employed. A solution of each test peptide in kinase buffer (Hepes 100 mM (pH 8.0), MgCl2 8 mM, MnCl2 6 mM, Triton X100 0.1% v/v, BSA 0.2% w/v, 4 μg/ml IRS-1 peptide (Biotin-[…] in PBS+1 mg/ml)) was prepared. Samples were mixed in a microtiter plate in triplicate. 50 μl 2× kinase buffer was added into each well. […] Volume was adjusted to 88 μL, before addition of purified HIGF-1R (2 μl/well). Plates were shaken and incubated for 50 min. at room temperature (RT). DTT and 10 μl/well ATP were added and the wells incubated for 10 min. before stopping the reaction by adding 10 μl stop-buffer (50 mM EDTA (pH 8.0))/well and shaking. The samples were then transferred to streptavidin coated plates and incubated for 1 hour at RT. The coated plates were aspirated and washed 3 times with TBS-T. […] P-tyr Ab-PO (Phosphotyrosine-RC20:HRPO (1:1000) in TBS-T) was added and each plate was incubated for 30 min at RT. The plates were aspirated and washed 3 times with TBS-T. 100 μl TMB-One-substrate (Kem-En-Tec Diagnostics A/S—Denmark) (preheated to RT) was then added and the plates further incubated for approximately 20 min at RT. This reaction was stopped by adding 10 μl H2SO4 and the plates were read in an ELISA-reader at […] within 5-10 min. thereafter. […]

[1] = first value of the cell: concentration needed to blunt the effect of 10 nM IGF-1, cells in words only = effect as reported, 48 hours
[2] = read-out: IC50 in SW480 (M) in presence of IGF-1/alone: in presence of IGF-1, first value of the cell: concentration needed to blunt the effect of 10 nM IGF-1, cells in words only = effect as reported, 48 hours

T1 sequence (P08069 31-736 limits assumed): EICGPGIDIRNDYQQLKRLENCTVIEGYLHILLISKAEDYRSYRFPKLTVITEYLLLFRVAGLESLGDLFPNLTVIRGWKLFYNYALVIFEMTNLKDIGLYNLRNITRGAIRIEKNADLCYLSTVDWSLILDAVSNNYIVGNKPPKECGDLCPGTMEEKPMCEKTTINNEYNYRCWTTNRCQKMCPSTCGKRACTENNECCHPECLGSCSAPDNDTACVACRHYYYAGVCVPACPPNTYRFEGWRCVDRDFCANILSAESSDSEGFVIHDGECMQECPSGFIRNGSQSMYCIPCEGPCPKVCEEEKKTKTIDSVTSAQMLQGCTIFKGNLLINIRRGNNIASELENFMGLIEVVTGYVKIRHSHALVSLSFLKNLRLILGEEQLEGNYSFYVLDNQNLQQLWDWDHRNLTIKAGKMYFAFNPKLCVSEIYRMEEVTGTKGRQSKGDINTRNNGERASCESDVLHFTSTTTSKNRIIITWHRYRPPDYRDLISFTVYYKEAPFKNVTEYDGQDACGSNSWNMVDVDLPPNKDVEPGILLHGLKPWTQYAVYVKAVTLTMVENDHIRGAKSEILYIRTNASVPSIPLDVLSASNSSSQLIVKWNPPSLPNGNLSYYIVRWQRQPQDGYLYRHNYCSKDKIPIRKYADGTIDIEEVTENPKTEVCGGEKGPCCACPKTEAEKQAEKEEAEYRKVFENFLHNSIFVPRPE
T1 sequence (P08069 741-1367 limits assumed): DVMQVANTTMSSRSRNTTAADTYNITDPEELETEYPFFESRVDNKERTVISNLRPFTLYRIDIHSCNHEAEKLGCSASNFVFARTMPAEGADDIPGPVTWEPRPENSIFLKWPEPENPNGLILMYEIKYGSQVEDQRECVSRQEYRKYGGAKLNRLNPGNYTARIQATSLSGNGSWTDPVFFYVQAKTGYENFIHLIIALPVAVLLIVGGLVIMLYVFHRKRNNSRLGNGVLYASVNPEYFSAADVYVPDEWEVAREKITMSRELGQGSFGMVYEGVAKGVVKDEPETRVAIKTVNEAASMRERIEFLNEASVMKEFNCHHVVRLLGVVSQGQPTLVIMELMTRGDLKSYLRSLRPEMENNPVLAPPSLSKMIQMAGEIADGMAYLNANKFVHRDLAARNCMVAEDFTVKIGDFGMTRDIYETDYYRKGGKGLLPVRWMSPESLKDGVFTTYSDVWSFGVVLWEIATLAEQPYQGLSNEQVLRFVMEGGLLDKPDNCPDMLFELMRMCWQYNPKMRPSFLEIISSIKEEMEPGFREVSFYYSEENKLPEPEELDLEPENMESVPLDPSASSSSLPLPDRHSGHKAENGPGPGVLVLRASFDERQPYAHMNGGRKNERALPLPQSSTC

| Compound | IC50 in SW480 (M) in presence of IGF-1/alone: in presence of IGF-1 (SW480 cells; [1]) | other results |
| --- | --- | --- |
| CC[C@H](C)[C@H](NC(=O)[C@H](CS)NC(=O)[C@H](CCCNC(=N)N)NC(=O)[C@H](CCCNC(=N)N)NC(=O)[C@H](CCCNC(=N)N)NC(=O)[C@H](Cc1c[nH]c2ccccc12)NC(=O)CNC(=O)[C@H](Cc1ccccc1)NC(=O)[C@H](CO)NC(=O)[C@@H]1CCCN1C(=O)[C@@H](NC(=O)CNC(=O)[C@H](CC(C)C)NC(=O)[C@H](CO)NC(=O)[C@H](CC(C)C)NC(=O)[C@H](CC(=O)O)NC(=O)[C@H](CC(C)C)NC(=O)[C@H](CC(C)C)NC(=O)[C@H](CS)NC(=O)CNC(=O)[C@H](Cc1ccc(O)cc1)NC(=O)[C@H](Cc1ccccc1)NC(=O)[C@@H]1CCC(=O)N1)C(C)C)C(=O)N[C@H](C(=O)N[C@@H](C)C(=O)O)[C@@H](C)O [Peptide F138P] | – | IC50 (SW480 cells): 5e-07 M; inhibition of basal growth of SW480, doses (SW480 cells; without IGF-1): > 100 nM |
| Ac-ESDVWAQPQRRNDWPGYHWLSR [Peptide F288] | No effect | – |
| Ac-SFYSCLESLVQGPAEKSRGQWEGCRX [Peptide F369] | – | IC50 (SW480 cells; read-out: IC50, inhibition of IGF-1 (10 nM)-induced proliferation of SW480 cells, experiment 13262-015): > 1e-05 M; IC50 (SW480 cells; read-out: IC50, inhibition of IGF-1 (10 nM)-induced proliferation of SW480 cells, experiment 13262-016): > 1e-05 M |
| Ac-VEGROLFYDLLROLLAMRRNG [Peptide F235] | No effect | inhibition of IGF-1R kinase activation by IGF-1 (purified HIGF-1R): completely inhibit |
| Ac-VGRASGPPENFYDWPGRQLSLQSGEQRR [Peptide F287] | No effect | – |
| DMGDVECEDPFYDWFACQVRDTEFDE [Peptide F115] | No effect | – |
| EERATPRWRGYEWFDAQVERE [Peptide F211] | No effect | – |
| EFGTGYGGDGGGYWSGYEWLAW [Peptide F207] | No effect | IC50 (SW480 cells; [2]): 2e-06 M |
| EFLTRLLERLGLSWERGEAGGPYAQAE [Peptide F175] | No effect | – |
| EFSGFCMGLERLSOVSLGYCGAGOGGE [Peptide F169] | – | IC50 (SW480 cells; [2]): 2e-06 M |
| EGLLFCKQLFTLAGLQPEAGCVSSSRE [Peptide F165] | No effect | – |
| EGRVDDAFYENFERQLGE [Peptide F213] | No effect | IC50 (SW480 cells; [2]): 2e-06 M |
| EIQRDCQGRPCGDAANFYDWFVQQDSE [Peptide F268] | No effect | – |
| EISFRCQLFVLAGMHPCPVDVGGEGFE [Peptide F170] | No effect | – |
| ELQGFCELLATVTGVTGLGCLDYQPIE [Peptide F202] | No effect | IC50 (SW480 cells; [2]): > 1e-05 M; IC50 in SW480 (M) in presence of IGF-1/alone: alone (SW480 cells; second value of the cell: concentration needed to inhibit basal level in 0.5% FCS): no effect |
| ELSFACLLSQLSGVVLPDCLLGEDE [Peptide F201] | No effect | – |
| ENRSGELWEGYGWFNMQVRGE [Peptide F212] | No effect | – |
| EVDRDCQARPCGDAANFYDWFGQQGTE [Peptide F269] | – | IC50 (SW480 cells; read-out: IC50 in SW480 (M) in presence of IGF-1/alone: alone, second value of the cell: concentration needed to inhibit basal level in 0.5% FCS): > 1e-05 M; IC50 (SW480 cells; [2]): 5e-07 M |
| EVTSAGQWEGYEWFLGALHAE [Peptide F210] | No effect | – |
